The results in this text go back to PMC7496931, “Activation of Sirtuin 2 Inhibitors Employing Photoswitchable Geometry and Aqueous Solubility” (Chemmedchem, 2020).

The nature of data set [1]: Photoisomer distribution (PSD) by HPLC-ELSD. It is filed as physicochemical. The conditions noted are these: for E/Z [%] PSD @ 365 nm / PSD after 365 nm radiation, share of the Z isomer: after 365 nm irradiation; for E/Z [%] PSD @ 365 nm / E/Z [%] PSD @ 452 nm: HPLC in MeOH/water, ELSD; for E/Z [%] PSD @ 452 nm: after 452 nm irradiation. The protocol: (§1) Photochemistry: All photoisomerization experiments were conducted under ruby light of 630 nm and total exclusion of daylight. Illumination was executed using a Bio‐Link 254 Crosslinker from Vilber‐Lourmat equipped with six Vilber‐Lourmat T8‐L lamps (8 W, 365 nm). Visible light radiation of 630 nm (ruby) and 452 nm (blue) was derived from a Paulmann FlexLED 3D strip. All compounds were irradiated in solution using spectrophotometric grade solvents. Photoisomerization and UV/Vis‐spectra measurement was conducted in quartz glass cuvettes (114‐QS, Hellma Analytics) at room temperature.

Data set [2] in a line: UV/Vis spectra and half-life of thermal Z→E isomerization. More on the design: k of thermal Z→E isomerization (non-linear regression): unit not given here. In kind it is physicochemical. The conditions noted are these: for λΔ/max absorption maximum at thermal equilibrium: 50 μM in DMSO/assay buffer; for k of thermal Z→E isomerization (non-linear regression): 50 μM. The protocol:
as §1
UV/Vis Spectra and Half-Life of Thermal Isomerization
The half-life of the thermal Z→E isomerization after 5 minutes of 365 nm irradiation was determined by UV/Vis-spectroscopy. Therefore, solutions of the respective compounds (50 µM) in 5%, 50% or 90% DMSO in enzyme assay buffer (v/v) were prepared. An initial spectrum of the thermal equilibrium was recorded. After 5 minutes of irradiation with 365 nm the increase of absorbance at the thermal equilibrium maximum (λ∆max) was recorded as exemplified by compound 15c (Figure S3). Absorbance at λ = λ ∆max was plotted as a function of time. Non-linear regression yielded the half-life of the thermal Z→E isomerization (Table S1). For extrapolation of the reaction kinetics, the plateau value was set to the initial absorbance at λ=λ∆max. The following equation was used for non-linear regression:
y = (y0 − Plateau)e−kx + Plateau
Figure S3: Left: UV-Vis spectrum of 15c (50 µM) in assay buffer (5% DMSO, v/v) at the thermal equilibrium (∆) and the photostationary state (PSS) after UV irradiation (365 nm). Right:
Absorbance of 15c (50 µm) in assay buffer (5% DMSO, v/v) at λ∆max = 328 nm after 5 minutes of UV (365 nm) irradiation.
(1 picture or pasted object on this page, not shown here)

[3] abbreviates: 50 % DMSO (v/v) in assay buffer.
[4] abbreviates: 90 % DMSO (v/v) in assay buffer.

With `CCCC(=O)Nc1c(C)cc(/N=N/c2cncc(C(N)=O)c2)cc1C` [9 b], in data set [1], the “E/Z [%] PSD @ 365 nm” value is on record as 10/90 and the “E/Z [%] PSD @ 452 nm” value is reported as 86/14. For the same compound, in data set [2] (5 % DMSO (v/v)), the “λΔ/max absorption maximum at thermal equilibrium” value (shortened to “λΔ/max absorption maximum”) was determined as 332 nm. Further, the “k of thermal Z→E isomerization (non-linear regression)” value in data set [2] (5 % DMSO (v/v) in assay buffer) is recorded as 0.08608.

In the case of `NC(=O)c1cncc(/N=N/c2ccc(C#CCCCCO)cc2)c1` [15 g], in data set [1], the “E/Z [%] PSD @ 365 nm” value is on record as 25/75 and the “E/Z [%] PSD @ 452 nm” value is 89/11. The “λΔ/max absorption maximum” value in data set [2] (50 % DMSO (v/v)) amounted to 355 nm. Further, the “k of thermal Z→E isomerization (non-linear regression)” value in data set [2] (setting [3]) turned out to be 0.0139.

For `CCCCCCCC(=O)Nc1c(C)cc(/N=N/c2cncc(C(N)=O)c2)cc1C` [9 d], in data set [1], the “E/Z [%] PSD @ 365 nm” value is on record as 9/91 and the “E/Z [%] PSD @ 452 nm” value is listed as 88/12. In data set [2] (90 % DMSO (v/v)), the “λΔ/max absorption maximum” value was found to be 345 nm. For the same compound, in data set [2] (setting [4]), the “k of thermal Z→E isomerization (non-linear regression)” value is 0.03293.

`Cc1cc(/N=N/c2cncc(C(N)=O)c2)cc(C)c1NC(=O)c1ccc(F)cc1` [9 i]: in data set [1], the “E/Z [%] PSD @ 365 nm” value is reported as 12/88 and the “E/Z [%] PSD @ 452 nm” value is listed as 91/9. Besides, the “λΔ/max absorption maximum” value in data set [2] (50 % DMSO (v/v)) is 337 nm. Moreover, the “k of thermal Z→E isomerization (non-linear regression)” value in data set [2] (setting [3]) was 1.193.

Take `CCCCCCCCCCCC(=O)Nc1c(C)cc(/N=N/c2cncc(C(N)=O)c2)cc1C` [9 f]: in data set [1], the “E/Z [%] PSD @ 365 nm” value was 10/90 and the “E/Z [%] PSD @ 452 nm” value was 91/9. Also, in data set [2] (90 % DMSO (v/v)), the “λΔ/max absorption maximum” value is given as 346 nm. Further, in data set [2] (setting [4]), the “k of thermal Z→E isomerization (non-linear regression)” value is 0.03286.

As for `NC(=O)c1cncc(/N=N/c2ccc(Br)cc2)c1` [15 d], in data set [1], the “E/Z [%] PSD @ 365 nm” value is reported as 9/91 and the “E/Z [%] PSD @ 452 nm” value is 91/9. In addition, in data set [2] (5 % DMSO (v/v)), the “λΔ/max absorption maximum” value stood at 332 nm. In addition, the “k of thermal Z→E isomerization (non-linear regression)” value in data set [2] (5 % DMSO (v/v) in assay buffer) was found to be 0.003156.

On to `CCCCCCCCCC(=O)Nc1c(C)cc(/N=N/c2cncc(C(N)=O)c2)cc1C` [9 e], for which, in data set [1], the “E/Z [%] PSD @ 365 nm” value was 10/90 and the “E/Z [%] PSD @ 452 nm” value was 90/10. Moreover, the “λΔ/max absorption maximum” value in data set [2] (90 % DMSO (v/v)) is 344 nm. Besides, in data set [2] (setting [4]), the “k of thermal Z→E isomerization (non-linear regression)” value is 0.03173.

As to `CC(C)(C)OC(=O)Cc1ccc(/N=N/c2cncc(C(N)=O)c2)cc1` [15 b], in data set [1], the “E/Z [%] PSD @ 365 nm” value is reported as 6/94 and the “E/Z [%] PSD @ 452 nm” value is 90/10. Also, the “λΔ/max absorption maximum” value in data set [2] (50 % DMSO (v/v)) worked out at 332 nm. Besides, in data set [2] (setting [3]), the “k of thermal Z→E isomerization (non-linear regression)” value is reported as 0.02959.

`CC(=O)Nc1c(C)cc(/N=N/c2cncc(C(N)=O)c2)cc1C` [9 a]: in data set [2] (5 % DMSO (v/v)), the “λΔ/max absorption maximum” value was determined as 329 nm. Further, the “k of thermal Z→E isomerization (non-linear regression)” value in data set [2] (5 % DMSO (v/v) in assay buffer) is 0.1176.

Turning to `Cc1cc(/N=N/c2cncc(C(N)=O)c2)cc(C)c1NC(=O)C12CC3CC(CC(C3)C1)C2` [9 k], in data set [1], the “E/Z [%] PSD @ 365 nm” value was 14/86 and the “E/Z [%] PSD @ 452 nm” value is 89/11. The “λΔ/max absorption maximum” value in data set [2] (50 % DMSO (v/v)) is 339 nm. Also, the “k of thermal Z→E isomerization (non-linear regression)” value in data set [2] (setting [3]) turned out to be 0.1022.

Turning to `CCCCNC(=O)c1ccc(/N=N/c2cncc(C(N)=O)c2)cc1` [15 e], in data set [1], the “PSD after 365 nm radiation, share of the Z isomer” value was 60–70%; the “E/Z [%] PSD @ 365 nm” value is 40/60; the “E/Z [%] PSD @ 452 nm” value is 89/11. For the same compound, the “λΔ/max absorption maximum” value in data set [2] (50 % DMSO (v/v)) stood at 326 nm. Besides, in data set [2] (setting [3]), the “k of thermal Z→E isomerization (non-linear regression)” value is reported as 0.002728.

For `C#Cc1ccc(/N=N/c2cccc(COc3cncc(C(N)=O)c3)c2)cc1` [20 c], the “λΔ/max absorption maximum” value in data set [2] (50 % DMSO (v/v)) was 340 nm.

Consider `CCCCCC(=O)Nc1c(C)cc(/N=N/c2cncc(C(N)=O)c2)cc1C` [9 c], for which, in data set [1], the “E/Z [%] PSD @ 365 nm” value is on record as 9/91 and the “E/Z [%] PSD @ 452 nm” value is on record as 87/13. Moreover, the “λΔ/max absorption maximum” value in data set [2] (50 % DMSO (v/v)) turned out to be 339 nm. In addition, in data set [2] (setting [3]), the “k of thermal Z→E isomerization (non-linear regression)” value worked out at 0.043.

For the compound `CC(C)(C)OC(=O)c1ccc(/N=N/c2cncc(C(N)=O)c2)cc1` [15 a], in data set [1], the “PSD after 365 nm radiation, share of the Z isomer” value is 60–70%; the “E/Z [%] PSD @ 365 nm” value is given as 31/69; the “E/Z [%] PSD @ 452 nm” value is reported as 94/6. Besides, the “λΔ/max absorption maximum” value in data set [2] (50 % DMSO (v/v)) amounted to 325 nm. Moreover, in data set [2] (setting [3]), the “k of thermal Z→E isomerization (non-linear regression)” value is on record as 0.003905.
